In this data set the target is neprilysin (NEP) (Homo sapiens, UniProt P08473). In words: In vitro degradation by neprilysin, MALDI-TOF time course. As to conditions: 37° C. As for the experimental part: Many peptide hormones are destined for endocrine circulation where they are rapidly degraded with half-lives reaching only a few minutes^6-8.
For enzymatic degradation assays using either NEP or DPP-IV (R&D systems, UK), an enzyme titration was carried out to ensure full degradation within one hour of reaction time.
MALDI-TOF-MS was performed on a Bruker Autoflex instrument (Bruker Daltonik GmbH, Bremen, Germany) by mixing the quenched aliquots with a saturated solution of α-Cyano-4-hydroxycinnamic acid in ACN/H2O/TFA (70:30:0.1) at a ratio 1:1 on a target steel plate and mass-spectra were acquired in linear mode.
Reactions were performed in 50 mM Tris, 0.05% Brij-35, pH 9 (Neprilysin), or 50 mM Tris, 20 mM NaCl, pH 7.5 (IDE) and incubated at 37° C.

Sequence of neprilysin (NEP) (P08473 whole entry): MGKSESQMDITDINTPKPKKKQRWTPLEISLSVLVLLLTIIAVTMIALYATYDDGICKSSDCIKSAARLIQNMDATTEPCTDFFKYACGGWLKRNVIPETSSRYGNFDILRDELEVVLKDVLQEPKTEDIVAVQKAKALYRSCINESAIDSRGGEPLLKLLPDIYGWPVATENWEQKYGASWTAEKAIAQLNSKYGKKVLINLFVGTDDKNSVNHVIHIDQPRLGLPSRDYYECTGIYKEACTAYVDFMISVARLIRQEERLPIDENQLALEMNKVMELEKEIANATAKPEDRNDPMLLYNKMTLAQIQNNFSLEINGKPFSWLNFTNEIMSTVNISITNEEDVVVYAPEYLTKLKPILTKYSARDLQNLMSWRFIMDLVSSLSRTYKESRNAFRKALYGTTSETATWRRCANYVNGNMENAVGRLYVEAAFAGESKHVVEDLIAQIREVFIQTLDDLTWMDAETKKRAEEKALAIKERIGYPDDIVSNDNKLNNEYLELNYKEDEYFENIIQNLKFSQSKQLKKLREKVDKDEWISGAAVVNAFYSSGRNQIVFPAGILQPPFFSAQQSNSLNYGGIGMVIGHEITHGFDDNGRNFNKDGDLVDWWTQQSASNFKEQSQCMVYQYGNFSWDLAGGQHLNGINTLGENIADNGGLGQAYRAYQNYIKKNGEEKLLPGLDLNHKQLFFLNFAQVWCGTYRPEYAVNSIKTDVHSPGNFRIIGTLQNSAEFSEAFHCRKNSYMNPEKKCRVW

With `CC[C@H](C)[C@@H]1NC(=O)[C@H](CCCNC(=N)N)NC(=O)[C@H](CC(=O)O)NC(=O)[C@H](CCSC)NC(=O)[C@H](CCCNC(=N)N)NC(=O)CNC(=O)CNC(=O)[C@H](Cc2ccccc2)NC(=O)[C@@H](NC(=O)[C@H](CO)NC(=O)[C@H](CO)NC(=O)[C@H](CCCNC(=N)N)NC(=O)[C@H](CCCNC(=N)N)NC(=O)[C@H](CC(C)C)NC(=O)[C@@H](N)CO)CSSC[C@@H](C(=O)N[C@@H](CC(N)=O)C(=O)N[C@@H](CO[C@H]2O[C@H](CO)[C@H](O)[C@H](O)[C@H]2NC(C)=O)C(=O)N[C@@H](Cc2ccccc2)C(=O)N[C@@H](CCCNC(=N)N)C(=O)N[C@@H](Cc2ccc(O)cc2)C(=O)O)NC(=O)CNC(=O)[C@H](CC(C)C)NC(=O)CNC(=O)[C@H](CO[C@H]2O[C@H](CO)[C@H](O)[C@H](O)[C@H]2NC(C)=O)NC(=O)[C@H](CCC(N)=O)NC(=O)[C@H](C)NC(=O)CNC1=O` [ANP-Ser19+25/Tn], the “major degradation products remained detectable after incubation with neprilysin” value turned out to be 24 h. Also, the “residual full length / partially intact peptide detectable after incubation with NEP” value (MALDI-TOF) stood at 30 min. The matching figures for `CC[C@H](C)[C@@H]1NC(=O)[C@H](CCCNC(=N)N)NC(=O)[C@H](CC(=O)O)NC(=O)[C@H](CCSC)NC(=O)[C@H](CCCNC(=N)N)NC(=O)CNC(=O)CNC(=O)[C@H](Cc2ccccc2)NC(=O)[C@@H](NC(=O)[C@H](CO)NC(=O)[C@H](CO)NC(=O)[C@H](CCCNC(=N)N)NC(=O)[C@H](CCCNC(=N)N)NC(=O)[C@H](CC(C)C)NC(=O)[C@@H](N)CO)CSSC[C@@H](C(=O)N[C@@H](CC(N)=O)C(=O)N[C@@H](CO)C(=O)N[C@@H](Cc2ccccc2)C(=O)N[C@@H](CCCNC(=N)N)C(=O)N[C@@H](Cc2ccc(O)cc2)C(=O)O)NC(=O)CNC(=O)[C@H](CC(C)C)NC(=O)CNC(=O)[C@H](CO[C@H]2O[C@H](CO)[C@H](O)[C@H](O)[C@H]2NC(C)=O)NC(=O)[C@H](CCC(N)=O)NC(=O)[C@H](C)NC(=O)CNC1=O` [ANP-Ser19/Tn]: 24 h and 60 min. Consider `CC[C@H](C)[C@@H]1NC(=O)[C@H](CCCNC(=N)N)NC(=O)[C@H](CC(=O)O)NC(=O)[C@H](CCSC)NC(=O)[C@H](CCCNC(=N)N)NC(=O)CNC(=O)CNC(=O)[C@H](Cc2ccccc2)NC(=O)[C@@H](NC(=O)[C@H](CO)NC(=O)[C@H](CO)NC(=O)[C@H](CCCNC(=N)N)NC(=O)[C@H](CCCNC(=N)N)NC(=O)[C@H](CC(C)C)NC(=O)[C@@H](N)CO)CSSC[C@@H](C(=O)N[C@@H](CC(N)=O)C(=O)N[C@@H](CO[C@H]2O[C@H](CO)[C@H](O)[C@H](O)[C@H]2NC(C)=O)C(=O)N[C@@H](Cc2ccccc2)C(=O)N[C@@H](CCCNC(=N)N)C(=O)N[C@@H](Cc2ccc(O)cc2)C(=O)O)NC(=O)CNC(=O)[C@H](CC(C)C)NC(=O)CNC(=O)[C@H](CO)NC(=O)[C@H](CCC(N)=O)NC(=O)[C@H](C)NC(=O)CNC1=O` [ANP-Ser25/Tn], for which the “residual full length / partially intact peptide detectable after incubation with NEP” value (MALDI-TOF) was 15 min.

On to `CC(C)C[C@H](NC(=O)CNC(=O)[C@H](CCC(N)=O)NC(=O)[C@H](CC(C)C)NC(=O)[C@H](CC(C)C)NC(=O)[C@H](CCCNC(=N)N)NC(=O)[C@H](CCC(N)=O)NC(=O)[C@H](CC(C)C)NC(=O)[C@H](CCCNC(=N)N)NC(=O)[C@H](C)NC(=O)CNC(=O)[C@H](CCC(=O)O)NC(=O)[C@H](CCCNC(=N)N)NC(=O)[C@H](CC(C)C)NC(=O)[C@H](CCCNC(=N)N)NC(=O)[C@H](CO)NC(=O)[C@H](CC(C)C)NC(=O)[C@H](CCC(=O)O)NC(=O)[C@H](CO)NC(=O)[C@@H](NC(=O)[C@H](Cc1ccccc1)NC(=O)[C@@H](NC(=O)CNC(=O)[C@H](CC(=O)O)NC(=O)[C@H](CO)NC(=O)[C@@H](N)Cc1c[nH]cn1)[C@@H](C)O)[C@@H](C)O)C(=O)N[C@H](C(N)=O)C(C)C` [Secretin, reference compound], for which, under “MALDI-TOF”, the “time to complete degradation by NEP” value is at most 60 min.

`CC(=O)N[C@H]1[C@@H](O[C@H](C)[C@H](NC(=O)[C@H](Cc2ccccc2)NC(=O)[C@@H](NC(=O)CNC(=O)[C@H](CC(=O)O)NC(=O)[C@H](CO)NC(=O)[C@@H](N)Cc2c[nH]cn2)[C@@H](C)O)C(=O)N[C@@H](CO)C(=O)N[C@@H](CCC(=O)O)C(=O)N[C@@H](CC(C)C)C(=O)N[C@@H](CO)C(=O)N[C@@H](CCCNC(=N)N)C(=O)N[C@@H](CC(C)C)C(=O)N[C@@H](CCCNC(=N)N)C(=O)N[C@@H](CCC(=O)O)C(=O)NCC(=O)N[C@@H](C)C(=O)N[C@@H](CCCNC(=N)N)C(=O)N[C@@H](CC(C)C)C(=O)N[C@@H](CCC(N)=O)C(=O)N[C@@H](CCCNC(=N)N)C(=O)N[C@@H](CC(C)C)C(=O)N[C@@H](CC(C)C)C(=O)N[C@@H](CCC(N)=O)C(=O)NCC(=O)N[C@@H](CC(C)C)C(=O)N[C@H](C(N)=O)C(C)C)O[C@H](CO)[C@H](O)[C@@H]1O` [Secretin-Thr7-Tn]: the “remained (completely) intact after incubation with NEP” value (MALDI-TOF) worked out at 60 min. With `CC[C@H](C)[C@H](NC(=O)[C@H](CO)NC(=O)[C@H](CC(N)=O)NC(=O)[C@H](CC(C)C)NC(=O)[C@H](Cc1ccc(O)cc1)NC(=O)[C@H](CCCCN)NC(=O)[C@H](CCCCN)NC(=O)[C@@H](NC(=O)[C@H](C)NC(=O)[C@H](CCSC)NC(=O)[C@H](CCC(N)=O)NC(=O)[C@H](CCCCN)NC(=O)[C@H](CCCN=C(N)N)NC(=O)[C@H](CC(C)C)NC(=O)[C@H](CCCN=C(N)N)NC(=O)[C@@H](NC(=O)[C@H](Cc1ccc(O)cc1)NC(=O)[C@H](CC(N)=O)NC(=O)[C@H](CC(=O)O)NC(=O)[C@@H](NC(=O)[C@H](Cc1ccccc1)NC(=O)[C@@H](NC(=O)[C@H](C)NC(=O)[C@H](CC(=O)O)NC(=O)[C@H](CO)NC(=O)[C@@H](N)Cc1c[nH]cn1)C(C)C)[C@@H](C)O)[C@@H](C)O)C(C)C)C(=O)N[C@@H](CC(C)C)C(=O)N[C@@H](CC(N)=O)C(N)=O` [VIP, Vasoactive intestinal peptide, reference compound], the “time to complete degradation by NEP” value (MALDI-TOF) was 15 min. Take `CC[C@H](C)[C@H](NC(=O)[C@H](CO)NC(=O)[C@H](CC(N)=O)NC(=O)[C@H](CC(C)C)NC(=O)[C@H](Cc1ccc(O)cc1)NC(=O)[C@H](CCCCN)NC(=O)[C@H](CCCCN)NC(=O)[C@@H](NC(=O)[C@H](C)NC(=O)[C@H](CCSC)NC(=O)[C@H](CCC(N)=O)NC(=O)[C@H](CCCCN)NC(=O)[C@H](CCCNC(=N)N)NC(=O)[C@H](CC(C)C)NC(=O)[C@H](CCCNC(=N)N)NC(=O)[C@@H](NC(=O)[C@H](Cc1ccc(O)cc1)NC(=O)[C@H](CC(N)=O)NC(=O)[C@H](CC(=O)O)NC(=O)[C@@H](NC(=O)[C@H](Cc1ccccc1)NC(=O)[C@@H](NC(=O)[C@H](C)NC(=O)[C@H](CC(=O)O)NC(=O)[C@H](CO)NC(=O)[C@@H](N)Cc1c[nH]cn1)C(C)C)[C@@H](C)O[C@H]1O[C@H](CO)[C@H](O)[C@H](O[C@@H]2O[C@H](CO)[C@H](O)[C@H](O)[C@H]2O)[C@H]1NC(C)=O)[C@@H](C)O)C(C)C)C(=O)N[C@@H](CC(C)C)C(=O)N[C@@H](CC(N)=O)C(N)=O` [VIP-Thr7/T]: the “residual full length / partially intact peptide detectable after incubation with NEP” value (MALDI-TOF) was determined as 30 min.

These data come from patent publication US20210171598A1, “PEPTIDE HORMONE WITH ONE OR MORE O-GLYCANS” (priority 2017, published 2021).
